Source: PubChem BioAssay (NCI)
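All cell lines were grown in 96-well plates and treated with compound for 48 hours. GI50 marks 50% less growth. Definition used: TGI = concentration required for complete inhibition of growth.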

What was measured:
Assay in all cases: NCI tumour cell line growth inhibition, 48 h
[1] = tested on: OVCAR-3 ovarian
[2] = tested on: HL-60(TB) leukemia
[3] = tested on: CCRF-CEM leukemia
[4] = tested on: T-47D breast
[5] = tested on: OVCAR-8 ovarian
[6] = tested on: MCF7 breast
[7] = tested on: UACC-62 melanoma
[8] = tested on: U251 CNS
[9] = tested on: SN12C renal
[10] = tested on: UACC-257 melanoma
[11] = tested on: HCT-116 colon
[12] = tested on: ACHN renal
[13] = tested on: RPMI-8226 leukemia
[14] = tested on: NCI-H460 lung
[15] = tested on: K-562 leukemia
[16] = tested on: M14 melanoma
[17] = tested on: SK-MEL-5 melanoma
[18] = tested on: MALME-3M melanoma
[19] = tested on: KM12 colon
[20] = tested on: A498 renal
[21] = tested on: SK-MEL-2 melanoma
[22] = tested on: HOP-92 NSCLC
[23] = tested on: OVCAR-5 ovarian
[24] = tested on: SNB-75 CNS
[25] = tested on: OVCAR-4 ovarian
[26] = tested on: MOLT-4 leukemia
[27] = tested on: NCI-H226 lung
[28] = tested on: SK-MEL-28 melanoma
[29] = tested on: COLO 205 colon
[30] = tested on: NCI-H522 lung
[31] = tested on: BT-549 breast
[32] = tested on: TK-10 renal
[33] = tested on: HCC-2998 colon
[34] = tested on: LOX IMVI melanoma
[35] = tested on: CAKI-1 renal
[36] = tested on: DU-145 prostate
[37] = tested on: NCI-H23 lung
[38] = tested on: 786-0 renal
[39] = tested on: MDA-MB-231 breast
[40] = tested on: HS 578T breast
[41] = tested on: HOP-62 NSCLC
[42] = tested on: PC-3 prostate
[43] = tested on: HT29 colon
[44] = tested on: NCI/ADR-RES ovarian
[45] = tested on: SNB-19 CNS
[46] = tested on: SF-295 CNS
[47] = tested on: MDA-MB-435
[48] = tested on: UO-31 renal
[49] = tested on: SF-268 CNS
[50] = tested on: HCT-15 colon
[51] = tested on: EKVX NSCLC
[52] = tested on: SR leukemia
[53] = tested on: IGROV1 ovarian
[54] = tested on: RXF 393 renal
[55] = tested on: SF-539 CNS
[56] = tested on: SW-620 colon
[57] = tested on: A549 NSCLC
[58] = tested on: SK-OV-3 ovarian

## N#C/C(=C\c1cn(Cc2ccccc2)c2ccccc12)C(=O)Nc1ncc(Cc2ccccc2Cl)s1
[1]
  GI50: 1.56 µM
  TGI: 3.62 µM
[2]
  GI50: > 100 µM
  TGI: > 100 µM
[3]
  GI50: 2.51 µM
  TGI: > 100 µM
[4]
  GI50: 1.69 µM
  TGI: 4.15 µM
[5]
  GI50: 1.35 µM
  TGI: 3.13 µM
[6]
  GI50: 3.01 µM
  TGI: > 100 µM
[7]
  GI50: 1.52 µM
  TGI: 3.16 µM
[8]
  GI50: 1.36 µM
  TGI: 2.92 µM
[9]
  GI50: 1.57 µM
  TGI: 3.88 µM
[10]
  GI50: 3.3 µM
  TGI: > 100 µM
[11]
  GI50: 1.27 µM
  TGI: 3.89 µM
[12]
  GI50: 0.823 µM
  TGI: 2.14 µM
[13]
  GI50: 3.23 µM
  TGI: > 100 µM
[14]
  GI50: 0.53 µM
  TGI: 1.99 µM
[15]
  GI50: 3.03 µM
  TGI: > 100 µM
[16]
  GI50: 2.52 µM
  TGI: 10.4 µM
[17]
  GI50: 2.62 µM
  TGI: 7.08 µM
[18]
  GI50: 1.78 µM
  TGI: 4.14 µM
[19]
  GI50: 1.89 µM
  TGI: 6.62 µM
[20]
  GI50: 1.08 µM
  TGI: 2.87 µM
[21]
  GI50: 2.05 µM
  TGI: 4.85 µM
[22]
  GI50: 1.88 µM
  TGI: 6 µM
[23]
  GI50: 1.7 µM
  TGI: 4.59 µM
[24]
  GI50: 1.5 µM
  TGI: 4.54 µM
[25]
  GI50: 0.393 µM
  TGI: 1.61 µM
[26]
  GI50: 2.49 µM
  TGI: > 100 µM
[27]
  GI50: 1.7 µM
  TGI: 5.67 µM
[28]
  GI50: 2.36 µM
  TGI: 6.74 µM
[29]
  GI50: 1.14 µM
  TGI: 2.81 µM
[30]
  GI50: 1.8 µM
  TGI: 6.36 µM
[31]
  GI50: 2.94 µM
  TGI: 11.6 µM
[32]
  GI50: 1.93 µM
  TGI: 4.2 µM
[33]
  GI50: 3.23 µM
  TGI: > 100 µM
[34]
  GI50: 4.61 µM
  TGI: 48.8 µM
[35]
  GI50: 1.43 µM
  TGI: 3.75 µM
[36]
  GI50: 2.75 µM
  TGI: > 100 µM
[37]
  GI50: 1.71 µM
  TGI: 4.08 µM
[38]
  GI50: 1.51 µM
  TGI: 3.11 µM
[39]
  GI50: 1.93 µM
  TGI: 4.79 µM
[40]
  GI50: 1.93 µM
  TGI: 7.08 µM
[41]
  GI50: 2.52 µM
  TGI: 10.4 µM
[42]
  GI50: 2.01 µM
  TGI: 7.48 µM
[43]
  GI50: 2.66 µM
  TGI: > 100 µM
[44]
  GI50: 2.68 µM
  TGI: 13.3 µM
[45]
  GI50: 3.07 µM
  TGI: 17.8 µM
[46]
  GI50: 2.36 µM
  TGI: 6.87 µM
[47]
  GI50: 1.79 µM
  TGI: 4.72 µM
[48]
  GI50: 1.46 µM
  TGI: 3.18 µM
[49]
  GI50: 2.79 µM
  TGI: 23.4 µM
[50]
  GI50: 2.83 µM
  TGI: > 100 µM
[51]
  GI50: 2.82 µM
  TGI: 12.7 µM
[52]
  GI50: 1.11 µM
  TGI: 3.58 µM
[53]
  GI50: 1.93 µM
  TGI: 5.57 µM
[54]
  GI50: 2.27 µM
  TGI: 6.14 µM
[55]
  GI50: 1.68 µM
  TGI: 3.42 µM
[56]
  GI50: 1.52 µM
  TGI: 4.2 µM
[57]
  GI50: 1.79 µM
  TGI: 6.02 µM
[58]
  GI50: 1.8 µM
  TGI: 4.66 µM

## COc1cc(/C=C/C(=O)c2ccc(Nc3nc(Nc4ccc(F)cc4)nc(Nc4ccc(Cl)cc4)n3)cc2)cc(OC)c1OC
[1]
  GI50: 4.14 µM
  TGI: 15.9 µM
[2]
  GI50: 0.523 µM
  TGI: 3.23 µM
[3]
  GI50: 1.09 µM
  TGI: 6.69 µM
[4]
  GI50: 5.6 µM
  TGI: > 62.2 µM
[5]
  GI50: 0.94 µM
  TGI: 11.1 µM
[6]
  GI50: 1.87 µM
  TGI: 20.3 µM
[7]
  GI50: 6.66 µM
  TGI: 23.7 µM
[8]
  GI50: 3.19 µM
  TGI: > 34.7 µM
[9]
  GI50: 5.69 µM
  TGI: 54.4 µM
[10]
  GI50: 6.76 µM
  TGI: 22.9 µM
[11]
  GI50: 3.13 µM
  TGI: 14.2 µM
[12]
  GI50: 5.88 µM
  TGI: 61.1 µM
[13]
  GI50: 0.811 µM
  TGI: 4.8 µM
[14]
  GI50: 4.3 µM
  TGI: 28 µM
[15]
  GI50: 1.74 µM
  TGI: 8.19 µM
[16]
  GI50: 10.1 µM
  TGI: 43.5 µM
[17]
  GI50: 4.16 µM
  TGI: 19 µM
[18]
  GI50: 5.41 µM
  TGI: 13.7 µM
[19]
  GI50: 3.35 µM
  TGI: 19.9 µM
[20]
  GI50: 3.23 µM
  TGI: 13.6 µM
[21]
  GI50: 5.51 µM
  TGI: 27 µM
[22]
  TGI: 4.75 µM
[23]
  GI50: 12.6 µM
  TGI: 45.5 µM
[24]
  GI50: 3.67 µM
  TGI: 38.7 µM
[25]
  GI50: 6.75 µM
  TGI: > 100 µM
[26]
  GI50: 1.15 µM
  TGI: 3.6 µM
[27]
  GI50: 3.63 µM
  TGI: 34.4 µM
[28]
  GI50: 1.82 µM
  TGI: 3.71 µM
[29]
  GI50: 7.1 µM
  TGI: 41.2 µM
[30]
  GI50: 3.8 µM
  TGI: > 53.9 µM
[31]
  GI50: 8.16 µM
  TGI: 59.3 µM
[32]
  GI50: 19.8 µM
  TGI: 76.4 µM
[33]
  GI50: 0.804 µM
  TGI: 2.3 µM
[34]
  GI50: 1.82 µM
  TGI: 4.84 µM
[35]
  GI50: > 100 µM
  TGI: > 100 µM
[36]
  GI50: 10.6 µM
  TGI: > 65.9 µM
[37]
  GI50: 3.99 µM
  TGI: 20.7 µM
[38]
  GI50: 6.13 µM
  TGI: 17.8 µM
[39]
  GI50: 5.77 µM
  TGI: > 37.9 µM
[40]
  GI50: 2.75 µM
  TGI: 11.9 µM
[41]
  GI50: 24.6 µM
  TGI: > 73.8 µM
[42]
  GI50: 1.04 µM
[43]
  GI50: 2.81 µM
  TGI: 17.5 µM
[44]
  GI50: 7.19 µM
  TGI: > 85.3 µM
[45]
  GI50: 18.9 µM
  TGI: > 100 µM
[46]
  GI50: 12.6 µM
  TGI: > 44.9 µM
[47]
  GI50: 7.6 µM
  TGI: > 26.4 µM
[48]
  GI50: 6.7 µM
  TGI: > 61.8 µM
[49]
  GI50: 9.23 µM
  TGI: 58.1 µM
[50]
  GI50: 2.02 µM
  TGI: > 29.4 µM
[51]
  GI50: > 24 µM
  TGI: > 100 µM
[52]
  GI50: 1.03 µM
  TGI: 3.74 µM
[53]
  GI50: 4.66 µM
  TGI: 31.8 µM
[54]
  GI50: 1.12 µM
  TGI: 2.9 µM
[55]
  GI50: 6.54 µM
  TGI: 15.3 µM
[56]
  GI50: 3.78 µM
  TGI: 17.2 µM
[57]
  GI50: 12.1 µM
  TGI: 99 µM
[58]
  GI50: 46.8 µM
  TGI: > 100 µM
